Experimental data published in patent US20070249560A1, “Hydrolysis resistant organomodified silyated surfactants” (priority 2006, published 2007).

How the values were obtained:
[1] = Spreading of 10 μL droplet on polystyrene Petri dishes; assay type: physicochemical; conditions: 30 seconds
Procedure: Spreading was determined by applying a 10 μL droplet, of surfactant solution to polystyrene Petri dishes (Fisher Scientific) and measuring the spread diameter (mm) after 30 seconds, at a relative humidity between 50 and 70% (at 22 to 25° C.). The solution was applied with an automatic pipette to provide droplets of reproducible volume. Deionized water that was further purified with a Millipore filtration system was used to prepare the surfactant solutions.

[2] = Surface tension, Kruss surface tensiometer; assay type: physicochemical; conditions: 0.1 wt % in 0.005M NaCl water
Procedure: Surface tension was measured using a Kruss surface tensiometer, with a sand blasted platinum blade as the sensor. Solutions of the various components were prepared at 0.1 wt % in 0.005M NaCl water (deionized), as an equilibrium aid.

Compound	Spread Diameter (mm) ([1]; 0.05% weight surfactant)	Spread Diameter (mm) ([1]; 0.1% weight surfactant)	Spread Diameter (mm) ([1]; 0.3% weight surfactant)	Spread Diameter (mm) ([1]; 0.5% weight surfactant)	Surface Tension [2] [mN/m]
C[Si](C)(C)C[Si](C)(C)CCCOCCOCCOCCOCCO [Product 6]	40	45	53	47	22.5
C[Si](C)(C)C[Si](C)(C)CCCOCCOCCOCCOCCOCCOCCOCCOCCOCCOCCOCCO [Product 8]		7		7	27.7
Octylphenolethoxylate, containing 10 polyoxyethylene units [OPE, reference compound]		9		10	31.8
C[Si](C)(C)CC[Si](C)(C)CCCOCCOCCOCCOCCO [Product 7]	30	42	48	49	22.7
C[Si](C)(C)CC[Si](C)(C)CCCOCCOCCOCCOCCOCCOCCOCCOCCOCCOCCOCCO [Product 9]		7		7	26.7
